Results as given in PubChem BioAssay AID330 (DTP/NCI, 2004).
Where “and” joins values, the source holds several entries; their conditions need not be identical. Equal entries are not always repeated. Inconclusive results and toxic doses are left out. Rule for the calls: active = survival T/C of 150% or more; inactive = T/C below 125% in these data.

Tested on: P388 leukemia ip, CD2F1 mice, survival T/C
Experiment: NCI In Vivo Anticancer Drug Screen. Data for tumor model P388 Leukemia (intraperitoneal) in CD2F1 (CDF1) mice
Details: endpoint: median survival time, higher = longer survival
Summary of the method: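 Mice carrying the transplanted tumor received test compound or vehicle. Survival was recorded in each group, and the value is the treated-group measurement divided by that of the vehicle-treated control group.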

[1] = dose: 60.0 mg/kg/injection, schedule: Q01DX005 (ip), vehicle: saline with Tween-80
[2] = dose: 120.0 mg/kg/injection, schedule: Q01DX005 (ip), vehicle: saline with Tween-80
[3] = dose: 240.0 mg/kg/injection, schedule: Q01DX005 (ip), vehicle: saline with Tween-80
[4] = dose: 50.0 mg/kg/injection, schedule: Q01DX009 (ip), vehicle: Klucel (hydroxypropylcellulose) (HPC)
[5] = dose: 100.0 mg/kg/injection, schedule: Q01DX009 (ip), vehicle: Klucel (hydroxypropylcellulose) (HPC)
[6] = dose: 200.0 mg/kg/injection, schedule: Q01DX009 (ip), vehicle: Klucel (hydroxypropylcellulose) (HPC)
[7] = dose: 400.0 mg/kg/injection, schedule: Q01DX009 (ip), vehicle: Klucel (hydroxypropylcellulose) (HPC)
[8] = dose: 50.0 mg/kg/injection, schedule: Q01DX005 (ip), vehicle: saline with Tween-80
[9] = dose: 100.0 mg/kg/injection, schedule: Q01DX005 (ip), vehicle: saline with Tween-80
[10] = dose: 200.0 mg/kg/injection, schedule: Q01DX005 (ip), vehicle: saline with Tween-80
[11] = dose: 50.0 mg/kg/injection, schedule: Q01DX005 (ip), vehicle: Klucel (hydroxypropylcellulose) (HPC)
[12] = dose: 100.0 mg/kg/injection, schedule: Q01DX005 (ip), vehicle: Klucel (hydroxypropylcellulose) (HPC)
[13] = dose: 200.0 mg/kg/injection, schedule: Q01DX005 (ip), vehicle: Klucel (hydroxypropylcellulose) (HPC)
[14] = dose: 50.0 mg/kg/injection, schedule: Q01DX009 (ip), vehicle: saline

Measured: T/C

C[n+]1ccc(C#N)c(C#N)c1
inactive: dose: 3.75 mg/kg/injection, schedule: Q01DX005 (ip), vehicle: Klucel (hydroxypropylcellulose) (HPC) 102 % of control | dose: 7.5 mg/kg/injection, schedule: Q01DX005 (ip), vehicle: Klucel (hydroxypropylcellulose) (HPC) 116 % of control | dose: 15.0 mg/kg/injection, schedule: Q01DX005 (ip), vehicle: Klucel (hydroxypropylcellulose) (HPC) 103 % of control | dose: 30.0 mg/kg/injection, schedule: Q01DX005 (ip), vehicle: Klucel (hydroxypropylcellulose) (HPC) 108 % of control and 110 % of control

N#CC(C(=O)C(N)=O)c1ccc(Cl)cc1Cl (configuration not stated)
inactive: [1] 104 % of control | [2] 103 % of control | [3] 100 % of control

COC1/C=C/OC2(C)Oc3c(C)c(O)c4c(O)c(c(/C=N/N5C(C)CN(Cc6ccccc6O)CC5C)c(O)c4c3C2=O)NC(=O)/C(C)=C\C=C\C(C)C(O)C(C)C(O)C(C)C(OC(C)=O)C1C (configuration not stated)
inactive: dose: 50.0 mg/kg/injection, schedule: Q01DX009 (ip), vehicle: saline with Tween-80 92 % of control | dose: 100.0 mg/kg/injection, schedule: Q01DX009 (ip), vehicle: saline with Tween-80 96 % of control | dose: 200.0 mg/kg/injection, schedule: Q01DX009 (ip), vehicle: saline with Tween-80 91 % of control

C=C(CN(C)C)C(=O)c1ccc(OC)cc1OC
inactive: dose: 1.9 mg/kg/injection, schedule: Q04DX002 (ip), vehicle: saline 95 % of control | dose: 3.8 mg/kg/injection, schedule: Q04DX002 (ip), vehicle: saline 106 % of control | dose: 7.5 mg/kg/injection, schedule: Q04DX002 (ip), vehicle: saline 102 % of control and 98 % of control

C[C@]12CCC(=O)C(O)=C1CC[C@@H]1[C@@H]2CC[C@]2(C)C(=O)CC[C@@H]12
inactive: dose: 12.5 mg/kg/injection, schedule: Q01DX009 (ip), vehicle: Klucel (hydroxypropylcellulose) (HPC) 111 % of control and 96 % of control | dose: 25.0 mg/kg/injection, schedule: Q01DX009 (ip), vehicle: Klucel (hydroxypropylcellulose) (HPC) 100 % of control and 111 % of control | [4] 105 % of control and 106 % of control | [5] 92 % of control and 93 % of control | [6] 92 % of control and 96 % of control | [7] 111 % of control and 88 % of control

CCCCN(CCCC)C(C)C(O)c1ccc2cc(Br)c3ccccc3c2c1 (configuration not stated)
inactive: [8] 100 % of control | [9] 98 % of control | [10] 91 % of control

c1ccc(-c2cnn3c(-c4ccccc4)cnnc23)cc1
inactive: [11] 99 % of control | [12] 99 % of control | [13] 99 % of control

CCNC(=S)N/N=C(/c1ccccc1)c1ccccn1
inactive: [4] 105 % of control | [5] 95 % of control | [6] 115 % of control

CCOC(=O)c1ccc(N(C)Cc2cnc(N)c(C#N)n2)cc1
inactive: dose: 15.0 mg/kg/injection, schedule: Q01DX009 (ip), vehicle: saline with Tween-80 114 % of control | dose: 30.0 mg/kg/injection, schedule: Q01DX009 (ip), vehicle: saline with Tween-80 115 % of control | dose: 60.0 mg/kg/injection, schedule: Q01DX009 (ip), vehicle: saline with Tween-80 89 % of control

Cc1cccc(=O)[n-]1.Cc1cccc(=O)[n-]1.Cc1cccc(=O)[n-]1.Cc1cccc(=O)[n-]1.[Cr+2].[Cr+2]
inactive: dose: 100.0 mg/kg/injection, schedule: Q04DX002 (ip), vehicle: Klucel (hydroxypropylcellulose) (HPC) 90 % of control | dose: 200.0 mg/kg/injection, schedule: Q04DX002 (ip), vehicle: Klucel (hydroxypropylcellulose) (HPC) 110 % of control | dose: 400.0 mg/kg/injection, schedule: Q04DX002 (ip), vehicle: Klucel (hydroxypropylcellulose) (HPC) 120 % of control

O=C1c2ccccc2-c2n[nH]c3cccc1c23
inactive: [4] 101 % of control | [5] 102 % of control | [6] 96 % of control | [7] 95 % of control

CN(C)C(=O)C[n+]1ccccc1
inactive: dose: 12.5 mg/kg/injection, schedule: Q01DX009 (ip), vehicle: saline 99 % of control | dose: 25.0 mg/kg/injection, schedule: Q01DX009 (ip), vehicle: saline 98 % of control | [14] 101 % of control

NS(=O)(=O)c1cc2c(cc1Cl)NC=NS2(=O)=O
inactive: dose: 18.75 mg/kg/injection, schedule: Q01DX009 (ip), vehicle: Klucel (hydroxypropylcellulose) (HPC) 100 % of control and 103 % of control | dose: 37.5 mg/kg/injection, schedule: Q01DX009 (ip), vehicle: Klucel (hydroxypropylcellulose) (HPC) 104 % of control and 91 % of control | dose: 75.0 mg/kg/injection, schedule: Q01DX009 (ip), vehicle: Klucel (hydroxypropylcellulose) (HPC) 104 % of control and 89 % of control | dose: 150.0 mg/kg/injection, schedule: Q01DX009 (ip), vehicle: Klucel (hydroxypropylcellulose) (HPC) 104 % of control and 90 % of control | dose: 225.0 mg/kg/injection, schedule: Q01DX009 (ip), vehicle: Klucel (hydroxypropylcellulose) (HPC) 99 % of control and 100 % of control

CN(c1ccccc1)c1cc2nc3ccccc3nc2cc1O
inactive: [14] 98 % of control | dose: 100.0 mg/kg/injection, schedule: Q01DX009 (ip), vehicle: saline 91 % of control

CC(C)=CCCC1=C2[C@H](O)C=C(C)C[C@@H]2OC1=O
inactive: [8] 100 % of control | [9] 99 % of control | [10] 101 % of control

COC(=O)C1(C(=O)OC)ON1C(C)(C)C (configuration not stated)
inactive: [11] 100 % of control | [12] 96 % of control | [13] 97 % of control

Clc1ccc2c(c1)C1CN(C2)Cc2ccc(Cl)cc21
inactive: dose: 100.0 mg/kg/injection, schedule: Q01DX001 (ip), vehicle: saline with Tween-80 101 % of control | dose: 200.0 mg/kg/injection, schedule: Q01DX001 (ip), vehicle: saline with Tween-80 87 % of control | dose: 400.0 mg/kg/injection, schedule: Q01DX001 (ip), vehicle: saline with Tween-80 93 % of control

NCC1OC(OC2C(CO)OC(OC3C(O)C(N)CC(N)C3OC3OC(CN)C(O)C(O)C3N)C2O)C(N)C(O)C1O (configuration not stated)
inactive: dose: 100.0 mg/kg/injection, schedule: Q01DX001 (ip), vehicle: saline 100 % of control | dose: 200.0 mg/kg/injection, schedule: Q01DX001 (ip), vehicle: saline 96 % of control

Cc1cc2c(C(C)C)c(O)c(O)c(C=Nc3ccc(C(=O)NCC(=O)O)cc3)c2c(O)c1-c1c(C)cc2c(C(C)C)c(O)c(O)c(C=Nc3ccc(C(=O)NCC(=O)O)cc3)c2c1O
inactive: [8] 94 % of control | [9] 100 % of control

COC1(OC)C(c2ccc([N+](=O)[O-])cc2)C(C#N)(C#N)C1(OC)OC (configuration not stated)
inactive: dose: 60.0 mg/kg/injection, schedule: Q01DX005 (ip), vehicle: Klucel (hydroxypropylcellulose) (HPC) 100 % of control | dose: 120.0 mg/kg/injection, schedule: Q01DX005 (ip), vehicle: Klucel (hydroxypropylcellulose) (HPC) 97 % of control | dose: 240.0 mg/kg/injection, schedule: Q01DX005 (ip), vehicle: Klucel (hydroxypropylcellulose) (HPC) 99 % of control

COc1cccc2c1C(=O)c1c(O)c3c(c(O)c1C2=O)C[C@@](O)(C(=O)CO)C[C@@H]3OC1CC(NC(=O)CN)C(O)C(C)O1 (some centres not stated)
inactive: dose: 25.0 mg/kg/injection, schedule: Q01DX009 (ip), vehicle: other 93 % of control | dose: 50.0 mg/kg/injection, schedule: Q01DX009 (ip), vehicle: other 94 % of control | dose: 100.0 mg/kg/injection, schedule: Q01DX009 (ip), vehicle: other 96 % of control

Cc1cc2nc3ccccc3[nH]c2c2ccc(=O)cc12
inactive: dose: 100.0 mg/kg/injection, schedule: Q04DX002 (ip), vehicle: saline with Tween-80 99 % of control | dose: 200.0 mg/kg/injection, schedule: Q04DX002 (ip), vehicle: saline with Tween-80 98 % of control | dose: 400.0 mg/kg/injection, schedule: Q04DX002 (ip), vehicle: saline with Tween-80 94 % of control

CC(=O)NC1C(Nc2ccc(S(=O)(=O)Nc3nccc(C)n3)cc2)OC(CO)C(O)C1O (configuration not stated)
inactive: dose: 50.0 mg/kg/injection, schedule: Q01DX005 (ip), vehicle: saline 100 % of control | dose: 100.0 mg/kg/injection, schedule: Q01DX005 (ip), vehicle: saline 105 % of control | dose: 200.0 mg/kg/injection, schedule: Q01DX005 (ip), vehicle: saline 92 % of control

COC(=O)c1cc(C)c(C)cc1NC1OC(CO)C(O)C1O (configuration not stated)
inactive: [1] 101 % of control | [2] 95 % of control | [3] 97 % of control

CC1(C)COC(c2ccccc2-c2ccccc2C2OCC(C)(C)CO2)OC1
inactive: dose: 100.0 mg/kg/injection, schedule: Q04DX003 (ip), vehicle: saline 100 % of control | dose: 200.0 mg/kg/injection, schedule: Q04DX003 (ip), vehicle: saline 99 % of control | dose: 400.0 mg/kg/injection, schedule: Q04DX003 (ip), vehicle: saline 104 % of control

CCCC(=O)NN(Cn1c(=S)sc2ccccc21)Cn1c(=S)sc2ccccc21
inactive: [11] 101 % of control | [12] 90 % of control | [13] 93 % of control
